{"source": "patent US9439432B2", "about": "“Phenylisoxazoline-based compound having herbicidal activity and use thereof” (MOGHU RESEARCH CENTER LTD, priority 2011, dated 2016)"}
{"tested_on": "Corn", "assay": "Pre-emergence treatment, phytotoxicity to corn", "assay_type": "in vivo", "details": "500 g/ha, 4 weeks after spraying, scale 0 to 10 (0: no effects, 10: complete death)", "description": "(§1) A rectangular plastic pot having a surface area of 300 cm^2 was filled with sandy loam soil and mixed bed soil which were mixed at a ratio of 1:1, and then, barnyardrass (Echinochloa crusgalli), large crabgrass (Digitaria sanguinalis), blackgrass (Alopecurus myosuroides), and annual bluegrass (Poa annua), which are grass weeds, were seeded thereto. In a pot that was prepared as described above, seeds of corn, soybean, cotton, wheat, and rice were seeded. The pots were irrigated, and one day after, chemicals were sprayed thereto. The spraying was performed by using a track sprayer (R&D Sprayer, USA) equipped with a Teejet 8002 (Spraying Systems Co., USA) nozzle, and a spraying amount was adjusted at 300 L/ha. A spraying solution was prepared by dissolving test materials or references in acetone and adding the same amount of 0.2%(v/v) tween 20 aqueous solution thereto. Application rates were 500, 250, 125, and 62.5 g/ha. The pots were placed in a greenhouse in which during day, the temperature was maintained at a temperature of 25 to 30° C., and during night, the temperature was maintained at a temperature of 15 to 25° C., and the pots were periodically irrigated. Four weeks after the spraying the test materials or References, effects and phytotoxicity of the respective weeds and crops were evaluated in a scale of 0 to 10 (0: no effects, 10: complete death), and results thereof are shown in Table 4 below."}
{"smiles": "Cc1ccccc1C1=NOC(C)(COCc2c(F)cccc2F)C1", "note": "(stereo not shown) [Compound 1, 5-((2,6-difluorobenzyloxy)methyl)-5-methyl-3-o-tolyl-4,5-dihydroisoxazole]", "Phytotoxicity, Corn": 1}
{"tested_on": "Soybean", "assay": "Pre-emergence treatment, phytotoxicity to soybean", "assay_type": "in vivo", "details": "500 g/ha, 4 weeks after spraying, scale 0 to 10 (0: no effects, 10: complete death)", "description": "as §1"}
{"smiles": "Cc1ccccc1C1=NOC(C)(COCc2c(F)cccc2F)C1", "note": "(stereo not shown) [Compound 1, 5-((2,6-difluorobenzyloxy)methyl)-5-methyl-3-o-tolyl-4,5-dihydroisoxazole]", "Phytotoxicity, Soybean": 0}
{"tested_on": "Cotton", "assay": "Pre-emergence treatment, phytotoxicity to cotton", "assay_type": "in vivo", "details": "500 g/ha, 4 weeks after spraying, scale 0 to 10 (0: no effects, 10: complete death)", "description": "as §1"}
{"smiles": "Cc1ccccc1C1=NOC(C)(COCc2c(F)cccc2F)C1", "note": "(stereo not shown) [Compound 1, 5-((2,6-difluorobenzyloxy)methyl)-5-methyl-3-o-tolyl-4,5-dihydroisoxazole]", "Phytotoxicity, Cotton": 0}
{"tested_on": "Wheat", "assay": "Pre-emergence treatment, phytotoxicity to wheat", "assay_type": "in vivo", "details": "500 g/ha, 4 weeks after spraying, scale 0 to 10 (0: no effects, 10: complete death)", "description": "as §1"}
{"smiles": "Cc1ccccc1C1=NOC(C)(COCc2c(F)cccc2F)C1", "note": "(stereo not shown) [Compound 1, 5-((2,6-difluorobenzyloxy)methyl)-5-methyl-3-o-tolyl-4,5-dihydroisoxazole]", "Phytotoxicity, Wheat": 0}
{"tested_on": "Rice", "assay": "Pre-emergence treatment, phytotoxicity to rice", "assay_type": "in vivo", "details": "500 g/ha, 4 weeks after spraying, scale 0 to 10 (0: no effects, 10: complete death)", "description": "as §1"}
{"smiles": "Cc1ccccc1C1=NOC(C)(COCc2c(F)cccc2F)C1", "note": "(stereo not shown) [Compound 1, 5-((2,6-difluorobenzyloxy)methyl)-5-methyl-3-o-tolyl-4,5-dihydroisoxazole]", "Phytotoxicity, Rice": 0}
{"tested_on": "Echinochloa crusgalli", "assay": "Pre-emergence treatment, herbicidal efficacy on barnyardgrass", "assay_type": "in vivo", "details": "62.5 g/ha, 4 weeks after spraying, scale 0 to 10", "description": "as §1"}
{"smiles": "Cc1ccccc1C1=NOC(C)(COCc2c(F)cccc2F)C1", "note": "(stereo not shown) [Compound 1, 5-((2,6-difluorobenzyloxy)methyl)-5-methyl-3-o-tolyl-4,5-dihydroisoxazole]", "Herbicidal efficacy, Echinochloa crusgalli": 10}
{"tested_on": "Echinochloa crusgalli", "assay": "Pre-emergence treatment, herbicidal efficacy on barnyardgrass", "assay_type": "in vivo", "details": "125 g/ha, 4 weeks after spraying, scale 0 to 10", "description": "as §1"}
{"smiles": "Cc1ccccc1C1=NOC(C)(COCc2c(F)cccc2F)C1", "note": "(stereo not shown) [Compound 1, 5-((2,6-difluorobenzyloxy)methyl)-5-methyl-3-o-tolyl-4,5-dihydroisoxazole]", "Herbicidal efficacy, Echinochloa crusgalli": 10}
{"tested_on": "Echinochloa crusgalli", "assay": "Pre-emergence treatment, herbicidal efficacy on barnyardgrass", "assay_type": "in vivo", "details": "250 g/ha, 4 weeks after spraying, scale 0 to 10", "description": "as §1"}
{"smiles": "Cc1ccccc1C1=NOC(C)(COCc2c(F)cccc2F)C1", "note": "(stereo not shown) [Compound 1, 5-((2,6-difluorobenzyloxy)methyl)-5-methyl-3-o-tolyl-4,5-dihydroisoxazole]", "Herbicidal efficacy, Echinochloa crusgalli": 10}
{"tested_on": "Echinochloa crusgalli", "assay": "Pre-emergence treatment, herbicidal efficacy on barnyardgrass", "assay_type": "in vivo", "details": "500 g/ha, 4 weeks after spraying, scale 0 to 10 (0: no effects, 10: complete death)", "description": "as §1"}
{"smiles": "Cc1ccccc1C1=NOC(C)(COCc2c(F)cccc2F)C1", "note": "(stereo not shown) [Compound 1, 5-((2,6-difluorobenzyloxy)methyl)-5-methyl-3-o-tolyl-4,5-dihydroisoxazole]", "Herbicidal efficacy, Echinochloa crusgalli": 10}
{"tested_on": "Digitaria sanguinalis", "assay": "Pre-emergence treatment, herbicidal efficacy on large crabgrass", "assay_type": "in vivo", "details": "62.5 g/ha, 4 weeks after spraying, scale 0 to 10", "description": "as §1"}
{"smiles": "Cc1ccccc1C1=NOC(C)(COCc2c(F)cccc2F)C1", "note": "(stereo not shown) [Compound 1, 5-((2,6-difluorobenzyloxy)methyl)-5-methyl-3-o-tolyl-4,5-dihydroisoxazole]", "Herbicidal efficacy, Digitaria sanguinalis": 9}
{"tested_on": "Digitaria sanguinalis", "assay": "Pre-emergence treatment, herbicidal efficacy on large crabgrass", "assay_type": "in vivo", "details": "125 g/ha, 4 weeks after spraying, scale 0 to 10", "description": "as §1"}
{"smiles": "Cc1ccccc1C1=NOC(C)(COCc2c(F)cccc2F)C1", "note": "(stereo not shown) [Compound 1, 5-((2,6-difluorobenzyloxy)methyl)-5-methyl-3-o-tolyl-4,5-dihydroisoxazole]", "Herbicidal efficacy, Digitaria sanguinalis": 10}
{"tested_on": "Digitaria sanguinalis", "assay": "Pre-emergence treatment, herbicidal efficacy on large crabgrass", "assay_type": "in vivo", "details": "250 g/ha, 4 weeks after spraying, scale 0 to 10", "description": "as §1"}
{"smiles": "Cc1ccccc1C1=NOC(C)(COCc2c(F)cccc2F)C1", "note": "(stereo not shown) [Compound 1, 5-((2,6-difluorobenzyloxy)methyl)-5-methyl-3-o-tolyl-4,5-dihydroisoxazole]", "Herbicidal efficacy, Digitaria sanguinalis": 10}
{"tested_on": "Digitaria sanguinalis", "assay": "Pre-emergence treatment, herbicidal efficacy on large crabgrass", "assay_type": "in vivo", "details": "500 g/ha, 4 weeks after spraying, scale 0 to 10", "description": "as §1"}
{"smiles": "Cc1ccccc1C1=NOC(C)(COCc2c(F)cccc2F)C1", "note": "(stereo not shown) [Compound 1, 5-((2,6-difluorobenzyloxy)methyl)-5-methyl-3-o-tolyl-4,5-dihydroisoxazole]", "Herbicidal efficacy, Digitaria sanguinalis": 10}
{"tested_on": "Poa annua", "assay": "Pre-emergence treatment, herbicidal efficacy on annual bluegrass", "assay_type": "in vivo", "details": "62.5 g/ha, 4 weeks after spraying, scale 0 to 10", "description": "as §1"}
{"smiles": "Cc1ccccc1C1=NOC(C)(COCc2c(F)cccc2F)C1", "note": "(stereo not shown) [Compound 1, 5-((2,6-difluorobenzyloxy)methyl)-5-methyl-3-o-tolyl-4,5-dihydroisoxazole]", "Herbicidal efficacy, Poa annua": 9}
{"tested_on": "Poa annua", "assay": "Pre-emergence treatment, herbicidal efficacy on annual bluegrass", "assay_type": "in vivo", "details": "125 g/ha, 4 weeks after spraying, scale 0 to 10", "description": "as §1"}
{"smiles": "Cc1ccccc1C1=NOC(C)(COCc2c(F)cccc2F)C1", "note": "(stereo not shown) [Compound 1, 5-((2,6-difluorobenzyloxy)methyl)-5-methyl-3-o-tolyl-4,5-dihydroisoxazole]", "Herbicidal efficacy, Poa annua": 10}
{"tested_on": "Poa annua", "assay": "Pre-emergence treatment, herbicidal efficacy on annual bluegrass", "assay_type": "in vivo", "details": "250 g/ha, 4 weeks after spraying, scale 0 to 10", "description": "as §1"}
{"smiles": "Cc1ccccc1C1=NOC(C)(COCc2c(F)cccc2F)C1", "note": "(stereo not shown) [Compound 1, 5-((2,6-difluorobenzyloxy)methyl)-5-methyl-3-o-tolyl-4,5-dihydroisoxazole]", "Herbicidal efficacy, Poa annua": 10}
{"tested_on": "Poa annua", "assay": "Pre-emergence treatment, herbicidal efficacy on annual bluegrass", "assay_type": "in vivo", "details": "500 g/ha, 4 weeks after spraying, scale 0 to 10", "description": "as §1"}
{"smiles": "Cc1ccccc1C1=NOC(C)(COCc2c(F)cccc2F)C1", "note": "(stereo not shown) [Compound 1, 5-((2,6-difluorobenzyloxy)methyl)-5-methyl-3-o-tolyl-4,5-dihydroisoxazole]", "Herbicidal efficacy, Poa annua": 10}
{"tested_on": "Alopecurus myosuroides", "assay": "Pre-emergence treatment, herbicidal efficacy on blackgrass", "assay_type": "in vivo", "details": "62.5 g/ha, 4 weeks after spraying, scale 0 to 10", "description": "as §1"}
{"smiles": "Cc1ccccc1C1=NOC(C)(COCc2c(F)cccc2F)C1", "note": "(stereo not shown) [Compound 1, 5-((2,6-difluorobenzyloxy)methyl)-5-methyl-3-o-tolyl-4,5-dihydroisoxazole]", "Herbicidal efficacy, Alopecurus myosuroides": 4}
{"tested_on": "Alopecurus myosuroides", "assay": "Pre-emergence treatment, herbicidal efficacy on blackgrass", "assay_type": "in vivo", "details": "125 g/ha, 4 weeks after spraying, scale 0 to 10", "description": "as §1"}
{"smiles": "Cc1ccccc1C1=NOC(C)(COCc2c(F)cccc2F)C1", "note": "(stereo not shown) [Compound 1, 5-((2,6-difluorobenzyloxy)methyl)-5-methyl-3-o-tolyl-4,5-dihydroisoxazole]", "Herbicidal efficacy, Alopecurus myosuroides": 6}
{"tested_on": "Alopecurus myosuroides", "assay": "Pre-emergence treatment, herbicidal efficacy on blackgrass", "assay_type": "in vivo", "details": "250 g/ha, 4 weeks after spraying, scale 0 to 10", "description": "as §1"}
{"smiles": "Cc1ccccc1C1=NOC(C)(COCc2c(F)cccc2F)C1", "note": "(stereo not shown) [Compound 1, 5-((2,6-difluorobenzyloxy)methyl)-5-methyl-3-o-tolyl-4,5-dihydroisoxazole]", "Herbicidal efficacy, Alopecurus myosuroides": 8}
{"tested_on": "Alopecurus myosuroides", "assay": "Pre-emergence treatment, herbicidal efficacy on blackgrass", "assay_type": "in vivo", "details": "500 g/ha, 4 weeks after spraying, scale 0 to 10", "description": "as §1"}
{"smiles": "Cc1ccccc1C1=NOC(C)(COCc2c(F)cccc2F)C1", "note": "(stereo not shown) [Compound 1, 5-((2,6-difluorobenzyloxy)methyl)-5-methyl-3-o-tolyl-4,5-dihydroisoxazole]", "Herbicidal efficacy, Alopecurus myosuroides": 9}
{"tested_on": "Corn", "assay": "Post-emergence treatment, phytotoxicity to corn", "assay_type": "in vivo", "details": "post-emergence (about 3 leaf stage), 1,000 g/ha, 4 weeks after spraying, scale 0 to 10 (0: no effects, 10: complete death)", "description": "as §1\nPots containing crops and weeds were prepared in the same manner as in Example 7, and then, in the second week in which crops and weeds entered into about 3 leaf stage, the test materials and the references were sprayed thereto in the same manner as described above. The rates were 1,000, 500, 250, and 125 g/ha. Four weeks after the spraying of the test materials or the references, herbicidal efficacy and phytotoxicity to the respective weeds and crops were evaluated in a scale of 0 to 10 (0: no effects, 10: complete death)."}
{"smiles": "Cc1ccccc1C1=NOC(C)(COCc2c(F)cccc2F)C1", "note": "(stereo not shown) [Compound 1, 5-((2,6-difluorobenzyloxy)methyl)-5-methyl-3-o-tolyl-4,5-dihydroisoxazole]", "Phytotoxicity, Corn": 2}
